Test results from patent US20100179158A1, “INHIBITORS OF CYCLIC AMP PHOSPHODIESTERASES” (priority 2007, published 2010).

Key:
[1] = target: T1, PDE4A1 (Mus musculus, UniProt O89084); assay: Fission yeast 5FOA growth assay, strain expressing PDE4A1; assay type: cell-based, murine; settings: 5FOA growth screen; for 2 Assay (2 uM), PDE 4A1: 2 uM compound; for 1 Assay (20 uM), PDE 4A1: 20 uM compound
T1 construct: targets used in the assays are full-length proteins (as opposed to simply the catalytic domain); expressed in transfected cells; host or cells: Schizosaccharomyces pombe, gene integrated at the cgs2 locus
T1 sequence (O89084 1-610 isoform O89084-2): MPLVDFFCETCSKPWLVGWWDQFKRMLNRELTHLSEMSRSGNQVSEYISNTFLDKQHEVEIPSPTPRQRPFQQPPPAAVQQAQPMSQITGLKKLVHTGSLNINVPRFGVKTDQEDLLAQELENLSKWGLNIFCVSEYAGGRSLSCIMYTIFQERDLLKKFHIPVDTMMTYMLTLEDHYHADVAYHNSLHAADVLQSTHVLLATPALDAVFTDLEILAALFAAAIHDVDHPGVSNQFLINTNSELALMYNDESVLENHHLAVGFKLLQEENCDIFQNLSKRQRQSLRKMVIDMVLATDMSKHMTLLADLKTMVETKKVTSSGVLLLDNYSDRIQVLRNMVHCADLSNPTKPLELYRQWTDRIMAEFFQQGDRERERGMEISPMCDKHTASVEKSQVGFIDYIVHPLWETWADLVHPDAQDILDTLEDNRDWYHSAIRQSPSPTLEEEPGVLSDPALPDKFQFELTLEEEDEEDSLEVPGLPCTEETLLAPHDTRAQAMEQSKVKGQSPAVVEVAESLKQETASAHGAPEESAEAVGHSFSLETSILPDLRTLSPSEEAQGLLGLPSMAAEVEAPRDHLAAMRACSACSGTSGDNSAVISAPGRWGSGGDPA
Description: High throughput drug screens were carried out at the Broad Institute's Chemical Biology Program screening facility (Broad Institute, Cambridge, Mass.). Depending upon the strain, cultures were pregrown to exponential phase in EMM complete medium containing from 0.5 to 2.5 mM cAMP to repress fbp1-ura4 transcription. […] Starting cell concentrations ranged from 0.5×10^5 to 4×10^5 cells/ml depending on the screening strain. […] Other positive control dishes contained 5 mM cAMP in the 5FOA medium. Cultures were grown for 48 hours at 30° C., sealed in an airtight container with moist paper towels to prevent evaporation. Optical densities (OD600) of cultures were measured using a microplate reader. Bioinformatic analysis of the results to determine composite Z scores was performed as previously described^30, 31.
Cells were pregrown in EMM medium [MP Biomedicals (Solon, OH), 3% glucose, filter-sterilized to avoid carmelization, which would introduce variability into the optical density of the medium] containing from 0 mM to 2.5 mM cAMP (or either 0.5 mM or 1.0 mM cGMP). This was to repress expression of the fbp1-ura4 reporter prior to exposure of cells to 5FOA medium. Cells were grown at 30° C. to exponential phase (approximately 10^7 cells/ml). […] Starting cell concentrations ranged from 0.5×10^5 to 4×10^5 cells/ml depending on the screening strain. […] Other positive control dishes contained 5 mM cAMP in the 5FOA medium for PDEs that lack appropriate control compounds. Cultures were grown for 48 hours at 30° C., sealed in an airtight container with moist paper towels to prevent evaporation. Optical densities (OD600) of cultures were measured using a microplate reader. Bioinformatic analysis of the results to determine composite Z scores was performed as previously described (1, 3).

[2] = target: T2, PDE7A (Homo sapiens, UniProt Q13946); assay: Fission yeast 5FOA growth assay, strain expressing PDE7A; assay type: cell-based; settings: 5FOA growth screen; for 2 Assay (2 uM), PDE 7A: 2 uM compound; for 1 Assay (20 uM), PDE 7A: 20 uM compound
T2 construct: targets used in the assays are full-length proteins (as opposed to simply the catalytic domain); expressed in transfected cells; host or cells: Schizosaccharomyces pombe, gene integrated at the cgs2 locus
Description: Cells were pregrown in EMM medium [MP Biomedicals (Solon, OH), 3% glucose, filter-sterilized to avoid carmelization, which would introduce variability into the optical density of the medium] containing from 0 mM to 2.5 mM cAMP (or either 0.5 mM or 1.0 mM cGMP). This was to repress expression of the fbp1-ura4 reporter prior to exposure of cells to 5FOA medium. Cells were grown at 30° C. to exponential phase (approximately 10^7 cells/ml). Cells were collected by centrifugation and resuspended in 5FOA medium, and 25 μl were transferred to 384-well microtiter dishes (untreated, with flat clear bottoms) that had been pre-filled with 25 μl 5FOA medium and pre-pinned with 100 nl of compounds (stock solutions were generally 10 mM). Starting cell concentrations ranged from 0.5×10^5 to 4×10^5 cells/ml depending on the screening strain. […] Other positive control dishes contained 5 mM cAMP in the 5FOA medium for PDEs that lack appropriate control compounds. Cultures were grown for 48 hours at 30° C., sealed in an airtight container with moist paper towels to prevent evaporation. Optical densities (OD600) of cultures were measured using a microplate reader. Bioinformatic analysis of the results to determine composite Z scores was performed as previously described (1, 3).

T2 sequence (Q13946 whole entry, the tested form may be a part): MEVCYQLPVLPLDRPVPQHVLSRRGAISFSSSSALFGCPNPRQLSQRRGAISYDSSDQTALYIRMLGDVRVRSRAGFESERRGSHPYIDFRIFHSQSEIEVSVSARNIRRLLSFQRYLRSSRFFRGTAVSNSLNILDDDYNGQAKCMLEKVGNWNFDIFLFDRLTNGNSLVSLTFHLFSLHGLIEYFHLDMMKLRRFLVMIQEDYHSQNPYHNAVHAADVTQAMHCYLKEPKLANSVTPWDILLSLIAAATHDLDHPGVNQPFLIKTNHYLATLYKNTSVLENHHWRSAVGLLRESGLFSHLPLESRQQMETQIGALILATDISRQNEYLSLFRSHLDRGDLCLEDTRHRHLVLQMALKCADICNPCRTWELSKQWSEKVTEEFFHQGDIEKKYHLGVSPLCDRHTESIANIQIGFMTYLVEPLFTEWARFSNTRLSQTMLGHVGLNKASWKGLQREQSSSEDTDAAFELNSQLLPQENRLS

2 Assay (2 uM), PDE 4A1 [1]	1 Assay (20 uM), PDE 4A1 [1]	2 Assay (2 uM), PDE 7A [2]	1 Assay (20 uM), PDE 7A [2]	SMILES
27.01	98.84	57.22	132.82	COC(=O)C1=C(C)N(C2CCCCC2)C(=O)/C1=C\c1cccs1 [Compound 22]
	0.80 ND ND ND ND		2.78 ND ND ND ND	COC(=O)C1=C(C)N(c2ccc(C(C)C)cc2)C(=O)/C1=C\c1cccs1 [2008, O19]
17.41	64.18	5.07	2.34	COC(=O)C1=C(C)N(c2ccccc2Cl)C(=O)/C1=C\c1cccs1 [Compound 27]

The remaining lines, values behind:

SMILES	2 Assay (2 uM), PDE 4A1 [1]	1 Assay (20 uM), PDE 4A1 [1]	2 Assay (2 uM), PDE 7A [2]	1 Assay (20 uM), PDE 7A [2]
COC(=O)C1=C(C)N(c2ccccc2F)C(=O)/C1=C\c1cccc(OC)c1O [2008, C21]		18.97 ND ND ND ND		−0.08 ND ND ND ND
Cc1ccc2c(c1)c1nc3ccccc3nc1n2C(C)C [Compound 41]		106.90		0.31
COC(=O)C1=C(C)N(c2ccccc2)/C(=C/c2cccs2)C1=O [2008, K19]		−0.46 ND ND ND ND		2.43 ND ND ND ND
